What was measured:
[1] = test system: Rattus norvegicus; test: Sub-acute toxicity in Wistar rat assessed as monocytes level at 100 mg/kg, po administered daily for 14 days (reference value: 2.6 +/- 1.5%); assay type: organism-based; details: in vivo, 336 h
[2] = target: Carbonic anhydrase 2 (Homo sapiens, UniProt P00918); test: Inhibition of human recombinant carbonic anhydrase 2 assessed as CO2 hydration preincubated for 15 mins prior to testing measured for 10 to 100 secs by phenol red dye-based stopped-flow assay
[3] = test system: Rattus norvegicus; test: Sub-acute toxicity in Wistar rat assessed as total bilirubin level at 100 mg/kg, po administered daily for 14 days (reference value: 0.37 +/- 0.11 mg/dl); assay type: organism-based; details: in vivo, 336 h
[4] = test system: Rattus norvegicus; test: Sub-acute toxicity in Wistar rat assessed as K+ level at 100 mg/kg, po administered daily for 14 days (reference value: 4.79 +/- 0.45 mEq/L); assay type: organism-based; details: in vivo, 336 h
[5] = test system: Mus musculus; test: Anticonvulsant activity in Swiss albino mouse assessed as protection against maximal electroshock-induced seizures at 30 mg/kg, ip administered 4 hrs prior to 50 mA current induction relative to control; assay type: functional
[6] = test system: Rattus norvegicus; test: Sub-acute toxicity in Wistar rat assessed as effect on food intake at 100 mg/kg, po administered daily for 14 days; assay type: organism-based; details: in vivo, 336 h
[7] = test system: Rattus norvegicus; test: Sub-acute toxicity in Wistar rat assessed as SGOT level at 100 mg/kg, po administered daily for 14 days (reference value: 69.9 +/- 7.7 U/L); assay type: organism-based; details: in vivo, 336 h
[8] = test system: Mus musculus; test: Anticonvulsant activity in Swiss albino mouse assessed as protection against maximal electroshock-induced seizures at 100 mg/kg, ip administered 3 hrs prior to 50 mA current induction relative to control
[9] = test system: Rattus norvegicus; test: Sub-acute toxicity in Wistar rat assessed as blood urea level at 100 mg/kg, po administered daily for 14 days (reference value: 40.7 +/- 3.3 mg/dl); assay type: organism-based; details: in vivo, 336 h
[10] = test system: Rattus norvegicus; test: Anticonvulsant activity in Wistar rat assessed as protection against maximal electroshock-induced seizures at 30 mg/kg, po administered 4 hrs prior to 150 mA current induction relative to control; assay type: functional
[11] = test system: Mus musculus; test: Anticonvulsant activity in Swiss albino mouse assessed as protection against maximal electroshock-induced seizures at 30 mg/kg, ip administered 1 hr prior to 50 mA current induction relative to control; assay type: functional
[12] = test system: Mus musculus; test: Anticonvulsant activity in Swiss albino mouse assessed as protection against maximal electroshock-induced seizures at 30 mg/kg, ip administered 6 hrs prior to 50 mA current induction relative to control; assay type: functional
[13] = test system: Rattus norvegicus; test: Sub-acute toxicity in Wistar rat assessed as RBC level at 100 mg/kg, po administered daily for 14 days (reference value: 7.9 +/- 0.56 million/mm3); assay type: organism-based; details: in vivo, 336 h
[14] = test system: Rattus norvegicus; test: Sub-acute toxicity in Wistar rat assessed as lymphocytes level at 100 mg/kg, po administered daily for 14 days (reference value: 72.3 +/- 6.7%); assay type: organism-based; details: in vivo, 336 h
[15] = test system: Mus musculus; test: Anticonvulsant activity in Swiss albino mouse assessed as protection against maximal electroshock-induced seizures at 30 mg/kg, ip administered 3 hrs prior to 50 mA current induction relative to control; assay type: functional
[16] = test system: Mus musculus; test: Anticonvulsant activity in Swiss albino mouse assessed as protection against subcutaneous PTZ-induced seizures at 100 mg/kg, ip administered 0.5 hrs prior to PTZ-induction relative to control; assay type: functional

Compound: Cc1ccc(N2CCN(c3ccc(/C=N/NC(=O)c4ccc(S(N)(=O)=O)cc4)cc3)CC2)c(C)c1
- Activity [1]: 2%
- Ki [2]: 9.39 µM
- Activity [3]: 0.35 mg/dL
- Activity [4]: 4.83 mEq/L
- Activity [5]: 50%
- Activity [6]: Non-Toxic
- Activity [7]: 65 U/L
- Activity [8]: 50%
- Activity [9]: 39.6 mg/dL
- Activity [10]: 50%
- Activity [11]: 60%
- Activity [12]: 60%
- Activity [13]: 7.2 million/mm3
- Activity [14]: 71.5%
- Activity [15]: 70%
- Activity [16]: 50%

From ChEMBL document CHEMBL4270557, “Discovery of potent anti-convulsant carbonic anhydrase inhibitors: Design, synthesis, in vitro and in vivo appraisal” (Eur J Med Chem, 2018)
